The NIST ThermoML archive (doi:10.1021/je2009736)
Numbers after ± are expanded uncertainties.

Experiments:
[1] = xn = mol fraction of the nth substance listed; details: 101 kPa, Liquid, Vibrating tube method
[2] = 298.15 K; 101.33 kPa; Liquid; Vibrating tube method

C[SiH]1O[SiH](C)O[SiH](C)O[SiH](C)O1 (configuration not stated) [2,4,6,8-tetramethyl-1,3,5,7,2,4,6,8-tetroxatetrasilocane] + c1ccccc1
mass density ([1]; 288.15 K, x1 = 0.0497): 898.88 ± 0.13 kg/m3
mass density ([1]; 288.15 K, x1 = 0.0999): 911.74 ± 0.13 kg/m3
mass density ([1]; 288.15 K, x1 = 0.1499): 922.78 ± 0.12 kg/m3
mass density ([1]; 288.15 K, x1 = 0.1997): 932.3 ± 0.12 kg/m3
mass density ([1]; 288.15 K, x1 = 0.2501): 940.72 ± 0.12 kg/m3
mass density ([1]; 288.15 K, x1 = 0.3): 948.04 ± 0.12 kg/m3
mass density ([1]; 288.15 K, x1 = 0.35): 954.56 ± 0.12 kg/m3
mass density ([1]; 288.15 K, x1 = 0.3999): 960.28 ± 0.11 kg/m3
mass density ([1]; 288.15 K, x1 = 0.4498): 965.46 ± 0.11 kg/m3
mass density ([1]; 288.15 K, x1 = 0.4999): 970.05 ± 0.11 kg/m3
mass density ([1]; 288.15 K, x1 = 0.5498): 974.22 ± 0.11 kg/m3
mass density ([1]; 288.15 K, x1 = 0.5999): 978.03 ± 0.11 kg/m3
mass density ([1]; 288.15 K, x1 = 0.6486): 981.36 ± 0.11 kg/m3
mass density ([1]; 288.15 K, x1 = 0.7001): 984.61 ± 0.11 kg/m3
mass density ([1]; 288.15 K, x1 = 0.7495): 987.43 ± 0.11 kg/m3
mass density ([1]; 288.15 K, x1 = 0.8001): 990.04 ± 0.11 kg/m3
mass density ([1]; 288.15 K, x1 = 0.8499): 992.42 ± 0.11 kg/m3
mass density ([1]; 288.15 K, x1 = 0.8986): 994.56 ± 0.11 kg/m3
mass density ([1]; 298.15 K, x1 = 0.0497): 888.24 ± 0.13 kg/m3
mass density ([1]; 298.15 K, x1 = 0.0999): 900.99 ± 0.13 kg/m3
mass density ([1]; 298.15 K, x1 = 0.1499): 911.91 ± 0.13 kg/m3
mass density ([1]; 298.15 K, x1 = 0.1997): 921.32 ± 0.12 kg/m3
mass density ([1]; 298.15 K, x1 = 0.2501): 929.65 ± 0.12 kg/m3
mass density ([1]; 298.15 K, x1 = 0.3): 936.87 ± 0.12 kg/m3
mass density ([1]; 298.15 K, x1 = 0.35): 943.15 ± 0.12 kg/m3
mass density ([1]; 298.15 K, x1 = 0.3999): 948.81 ± 0.12 kg/m3
mass density ([1]; 298.15 K, x1 = 0.4498): 953.89 ± 0.11 kg/m3
mass density ([1]; 298.15 K, x1 = 0.4999): 958.4 ± 0.11 kg/m3
mass density ([1]; 298.15 K, x1 = 0.5498): 962.44 ± 0.11 kg/m3
mass density ([1]; 298.15 K, x1 = 0.5999): 966.16 ± 0.11 kg/m3
mass density ([1]; 298.15 K, x1 = 0.6486): 969.41 ± 0.11 kg/m3
mass density ([1]; 298.15 K, x1 = 0.7001): 972.54 ± 0.11 kg/m3
mass density ([1]; 298.15 K, x1 = 0.7495): 975.28 ± 0.11 kg/m3
mass density ([1]; 298.15 K, x1 = 0.8001): 977.8 ± 0.11 kg/m3
mass density ([1]; 298.15 K, x1 = 0.8499): 980.12 ± 0.11 kg/m3
mass density ([1]; 298.15 K, x1 = 0.8986): 982.19 ± 0.11 kg/m3
mass density ([1]; 308.15 K, x1 = 0.0497): 877.55 ± 0.14 kg/m3
mass density ([1]; 308.15 K, x1 = 0.0999): 890.29 ± 0.13 kg/m3
mass density ([1]; 308.15 K, x1 = 0.1499): 901.26 ± 0.13 kg/m3
mass density ([1]; 308.15 K, x1 = 0.1997): 910.69 ± 0.12 kg/m3
mass density ([1]; 308.15 K, x1 = 0.2501): 918.93 ± 0.12 kg/m3
mass density ([1]; 308.15 K, x1 = 0.3): 926.1 ± 0.12 kg/m3
mass density ([1]; 308.15 K, x1 = 0.35): 932.28 ± 0.12 kg/m3
mass density ([1]; 308.15 K, x1 = 0.3999): 937.73 ± 0.12 kg/m3
mass density ([1]; 308.15 K, x1 = 0.4498): 942.65 ± 0.12 kg/m3
mass density ([1]; 308.15 K, x1 = 0.4999): 947.02 ± 0.11 kg/m3
mass density ([1]; 308.15 K, x1 = 0.5498): 950.92 ± 0.11 kg/m3
mass density ([1]; 308.15 K, x1 = 0.5999): 954.53 ± 0.11 kg/m3
mass density ([1]; 308.15 K, x1 = 0.6486): 957.65 ± 0.11 kg/m3
mass density ([1]; 308.15 K, x1 = 0.7001): 960.64 ± 0.11 kg/m3
mass density ([1]; 308.15 K, x1 = 0.7495): 963.27 ± 0.11 kg/m3
mass density ([1]; 308.15 K, x1 = 0.8001): 965.71 ± 0.11 kg/m3
mass density ([1]; 308.15 K, x1 = 0.8499): 967.91 ± 0.11 kg/m3
mass density ([1]; 308.15 K, x1 = 0.8986): 969.9 ± 0.11 kg/m3

C[SiH]1O[SiH](C)O[SiH](C)O[SiH](C)O1 (configuration not stated) [2,4,6,8-tetramethyl-1,3,5,7,2,4,6,8-tetroxatetrasilocane] + Cc1ccc(C)cc1
mass density ([1]; 288.15 K, x1 = 0.0499): 879.33 ± 0.13 kg/m3
mass density ([1]; 288.15 K, x1 = 0.0999): 892.03 ± 0.13 kg/m3
mass density ([1]; 288.15 K, x1 = 0.1501): 903.51 ± 0.13 kg/m3
mass density ([1]; 288.15 K, x1 = 0.1999): 913.85 ± 0.12 kg/m3
mass density ([1]; 288.15 K, x1 = 0.25): 923.25 ± 0.12 kg/m3
mass density ([1]; 288.15 K, x1 = 0.2999): 931.83 ± 0.12 kg/m3
mass density ([1]; 288.15 K, x1 = 0.3501): 939.62 ± 0.12 kg/m3
mass density ([1]; 288.15 K, x1 = 0.4): 946.73 ± 0.12 kg/m3
mass density ([1]; 288.15 K, x1 = 0.4502): 953.29 ± 0.12 kg/m3
mass density ([1]; 288.15 K, x1 = 0.4997): 959.21 ± 0.11 kg/m3
mass density ([1]; 288.15 K, x1 = 0.5493): 964.63 ± 0.11 kg/m3
mass density ([1]; 288.15 K, x1 = 0.6001): 969.79 ± 0.11 kg/m3
mass density ([1]; 288.15 K, x1 = 0.6501): 974.4 ± 0.11 kg/m3
mass density ([1]; 288.15 K, x1 = 0.7002): 978.67 ± 0.11 kg/m3
mass density ([1]; 288.15 K, x1 = 0.7472): 982.39 ± 0.11 kg/m3
mass density ([1]; 288.15 K, x1 = 0.7998): 986.27 ± 0.11 kg/m3
mass density ([1]; 288.15 K, x1 = 0.8492): 989.69 ± 0.11 kg/m3
mass density ([1]; 288.15 K, x1 = 0.9002): 992.92 ± 0.11 kg/m3
mass density ([1]; 298.15 K, x1 = 0.0499): 870.42 ± 0.14 kg/m3
mass density ([1]; 298.15 K, x1 = 0.0999): 882.82 ± 0.13 kg/m3
mass density ([1]; 298.15 K, x1 = 0.1501): 893.96 ± 0.13 kg/m3
mass density ([1]; 298.15 K, x1 = 0.1999): 904.11 ± 0.13 kg/m3
mass density ([1]; 298.15 K, x1 = 0.25): 913.34 ± 0.12 kg/m3
mass density ([1]; 298.15 K, x1 = 0.2999): 921.7 ± 0.12 kg/m3
mass density ([1]; 298.15 K, x1 = 0.3501): 929.23 ± 0.12 kg/m3
mass density ([1]; 298.15 K, x1 = 0.4): 936.18 ± 0.12 kg/m3
mass density ([1]; 298.15 K, x1 = 0.4502): 942.54 ± 0.12 kg/m3
mass density ([1]; 298.15 K, x1 = 0.4997): 948.26 ± 0.12 kg/m3
mass density ([1]; 298.15 K, x1 = 0.5493): 953.54 ± 0.11 kg/m3
mass density ([1]; 298.15 K, x1 = 0.6001): 958.45 ± 0.11 kg/m3
mass density ([1]; 298.15 K, x1 = 0.6501): 962.93 ± 0.11 kg/m3
mass density ([1]; 298.15 K, x1 = 0.7002): 967.02 ± 0.11 kg/m3
mass density ([1]; 298.15 K, x1 = 0.7472): 970.62 ± 0.11 kg/m3
mass density ([1]; 298.15 K, x1 = 0.7998): 974.32 ± 0.11 kg/m3
mass density ([1]; 298.15 K, x1 = 0.8492): 977.56 ± 0.11 kg/m3
mass density ([1]; 298.15 K, x1 = 0.9002): 980.61 ± 0.11 kg/m3
mass density ([1]; 308.15 K, x1 = 0.0499): 861.48 ± 0.14 kg/m3
mass density ([1]; 308.15 K, x1 = 0.0999): 873.61 ± 0.13 kg/m3
mass density ([1]; 308.15 K, x1 = 0.1501): 884.48 ± 0.13 kg/m3
mass density ([1]; 308.15 K, x1 = 0.1999): 894.33 ± 0.13 kg/m3
mass density ([1]; 308.15 K, x1 = 0.25): 903.35 ± 0.13 kg/m3
mass density ([1]; 308.15 K, x1 = 0.2999): 911.4 ± 0.12 kg/m3
mass density ([1]; 308.15 K, x1 = 0.3501): 918.8 ± 0.12 kg/m3
mass density ([1]; 308.15 K, x1 = 0.4): 925.53 ± 0.12 kg/m3
mass density ([1]; 308.15 K, x1 = 0.4502): 931.67 ± 0.12 kg/m3
mass density ([1]; 308.15 K, x1 = 0.4997): 937.19 ± 0.12 kg/m3
mass density ([1]; 308.15 K, x1 = 0.5493): 942.24 ± 0.12 kg/m3
mass density ([1]; 308.15 K, x1 = 0.6001): 947.03 ± 0.12 kg/m3
mass density ([1]; 308.15 K, x1 = 0.6501): 951.37 ± 0.11 kg/m3
mass density ([1]; 308.15 K, x1 = 0.7002): 955.31 ± 0.11 kg/m3
mass density ([1]; 308.15 K, x1 = 0.7472): 958.76 ± 0.11 kg/m3
mass density ([1]; 308.15 K, x1 = 0.7998): 962.3 ± 0.11 kg/m3
mass density ([1]; 308.15 K, x1 = 0.8492): 965.38 ± 0.11 kg/m3
mass density ([1]; 308.15 K, x1 = 0.9002): 968.28 ± 0.11 kg/m3

Cc1cccc(C)c1 [1,3-dimethylbenzene]
mass density [2]: 859.86 ± 0.13 kg/m3

C[SiH]1O[SiH](C)O[SiH](C)O[SiH](C)O1 (configuration not stated) [2,4,6,8-tetramethyl-1,3,5,7,2,4,6,8-tetroxatetrasilocane]
mass density [2]: 992.39 ± 0.11 kg/m3

c1ccccc1 [benzene]
mass density [2]: 873.57 ± 0.13 kg/m3

Cc1ccccc1 [toluene]
mass density [2]: 862.23 ± 0.13 kg/m3
